Laboratory results taken from patent US10722491B2, “Phenol compound and combination of same with a benzodiazepine fused to 1,4-dihydropyridine for treating diseases of the central nervous and vascular systems” (UNIVERSIDAD DE LA HABANA, priority 2016, dated 2020).

Experiments:
PC12 cells = assay: Cytoprotection against FeSO4/AA damage in PC12 cells (MTT); assay type: cell-based
Description: FIG. 8. Cytoprotective effect of KM-34 (0.001-10 μM) against damage induced by FeSO4 (5 mmol/L) and ascorbic acid (AA, 2 mmol/L) in cultures of PC12 cells. Viability 1% live cells) was determined by the MTT assay. Cells were seeded at a density of 5×10^5 cells/mL in a 96-well plate. The KM-34 was added simultaneously to the addition of the mixture of FeSO 4 and AA. The culture was then allowed to incubate at 37° C, […] and 5% CO 2 for 4 hours. After this time the supernatant was removed and the cells were incubated with 20 μg of MTT for a further 2 hours and the absorbance at 450 nm was measured with reference to 630 nm. The results are expressed as percentage of live cells relative to the control (undamaged cells, 100% live cells. *Represents significant differences (p<0.05) with respect to FeSO4/AA control.
The FeSO4/AA system is a strong catalyst for oxidative reactions in cells such as PC12 leading to their death (Hiroi et al., 2005; Núñez et al., 2011). […] At concentrations greater than 1 μM the % cell survival was greater than 90% (FIG. 8).

[1] = tested on: occlusion of the middle cerebral artery in rats; assay: Transient middle cerebral artery occlusion, cerebral infarct size (TTC); assay type: in vivo; conditions: for Total volume of infarction (percentage of the contralateral hemisphere): 1 hour after reperfusion, 90 min occlusion, 23 h reperfusion, vehicle 27.5%
Description: (§1) FIG. 13. Acute treatment with KM-34 reduced the volume of infarction edema and deficit in rat behavior after 90 min of middle cerebral artery occlusion (MACA) and 23 hours of reperfusion. The different doses of the compound were administered orally 1 hour after reperfusion. (A) Representative brain coronal sections (2 mm thick) of the sham and ischemic groups treated with vehicle or KM-34 (0.1, 0.5 or 1 mg/kg) and stained with 2,3,5-triphenyltetrazolium (TTC) 2%. The red regions correspond to undamaged tissue and white to ischemic regions. (B) Quantitative analysis of cortical, subcortical and total lesion size. (C) Neurological deficit. The bars represent the mean ± SEM (n=8). Different letters in (A) and * in (B): p<0.05, by ANOVA and post hoc of Newman-Keuls. Scale=10 mm.
The animals were randomly divided into the following groups (n=8 per group): (1) vehicle treated ischemia/reperfusion (I/R) control, (2) KM-34 treated I/R 0.1 mg/kg, (3) I/R treated with KM-34 0.5 mg/kg, (4) I/R treated with KM-34 1 mg/kg, (5) sham-operated vehicle treated and (6) sham—With KM-34 1 mg/kg. In all cases the treatment was administered orally (with an intragastric cannula). […]
(§2) Transient cerebral ischemia was performed by the OACM, using the intraluminal filament method. […] After 23 hours of reperfusion, the neurological deficit was evaluated and the animals sacrificed to determine the infarct volume and perform the behavioral evaluations.
Cerebral infarction was determined by staining with TTC, a colorless compound in solution but which, when reduced by dehydrogenases of functional mitochondria, forms a red brick formazan salt. […]
The animals were anesthetized again after the neurological evaluation and were perfused transcardially with 20 mL of saline at 4° C. […] The edema index (volume of the hemisphere ipsilateral to the OACM/volume of the contralateral hemisphere) and the volume of corrected infarction (volume of the lesion/edema index) were calculated to avoid overestimation of the infarct volume by cerebral edema. Infarct volume was expressed as a percentage of the contralateral hemisphere.

[2] = tested on: occlusion of the middle cerebral artery in rats; assay: Transient middle cerebral artery occlusion, neurological deficit score; assay type: in vivo; conditions: 0.5 and 1 mg/kg oral, 1 hour after reperfusion
Description: as §1, with “mm. […]” for “mm.”
as §2
Neurological deficit was assessed according to a six-point scale: 0=no observable neurological deficit; 1=no extension of the left front leg; 2=shifts in circles to the left if the animal is suspended by the tail; 3=spontaneous displacements in circles to the left; 4=no spontaneous motor activity with decreased level of consciousness; 5=death.

[3] = tested on: animals damaged with 6-OHDA; assay: 6-OHDA Parkinson's model, vertical exploratory activity; assay type: in vivo, rats

With CC1(C)OC(=O)C(=Cc2ccc(O)c(O)c2)C(=O)O1 [KM-34, 5-[(3,4-dihydroxyphenyl)methylidene]-2,2-dimethyl-1,3-dioxane-4,6-dione] the “Concentration showing cytoprotective effects against FeSO4/AA” value (PC12 cells; FeSO4 5 mmol/L and AA 2 mmol/L, 4 hours) was “higher than 0.001 μM”, the “Cells surviving oxidizing conditions” value (PC12 cells; FeSO4/AA, concentrations between 0.01-10 μM) was 90 out of 100 cells and the “% cell survival” value (PC12 cells; FeSO4/AA, concentrations greater than 1 μM) was “greater than 90%”. For the same compound, the “Total volume of infarction (percentage of the contralateral hemisphere)” value ([1]; 0.5 mg/kg oral) was 15.7%, the “Total volume of infarction (percentage of the contralateral hemisphere)” value ([1]; 1 mg/kg oral) was 5.3% and the “Tissue damage or behavioral alterations under basal conditions” value ([1]; sham group (without OACM), KM-34 1 mg/kg oral) was “no sign of tissue damage or behavioral alterations”. The “Neurological deficit (neurological score)” value [2] was “significantly improved (p<0.05) the neurological deficit”, the Vertical exploratory behavior ([3]; 0.5 and 1 mg doses, vs damaged animals) was “did not show statistically significant differences” and the Vertical exploratory behavior ([3]; maximum dose 2 mg/Kg) was “statistically significant differences with respect to damaged animals”.
